Source: patent US20260256792A1, “TREATMENT OF CHRONIC SPONTANEOUS URTICARIA BY ADMINISTERING (R)-2-[3-[4-AMINO-3-(2-FLUORO-4-PHENOXY-PHENYL)PYRAZOLO[3,4-D]PYRIMIDIN-1-YL]PIPERIDINE-1-CARBONYL]-4-METHYL-4-[4-(OXETAN-3-YL)PIPERAZIN-1-YL]PENT-2-ENENITRILE” (priority 2023, published 2026)

Test system: moderate-to-severe chronic spontaneous urticaria (CSU)
Assay: Phase 2 CSU study: urticaria activity score over 7 days (UAS7)
Assay type: in vivo, human
Parameters: key to UAS7 Median / UAS7 Change from baseline Median / UAS7 change from baseline, Q1 / UAS7 change from baseline, Q3 / UAS7 change from baseline, Max / UAS7 Change from baseline LS Mean (SE): UAS7 points; daily UAS score ranges 0–6 points/day, over 7 days
Source text: The study comprises a 12 week, randomized, double-blind, placebo-controlled, multi-center, dose-ranging efficacy and safety phase, followed by a 40 week open label extension (OLE) phase (see FIG. 1). The study consists of three phases and an optional OLE phase. […] Clinically, CSU is characterized by the spontaneous and recurrent appearance of pruritic hives. The proposed primary endpoints were the UAS7 at Week 12 in EU and EU reference countries and the ISS7 in the US. Regardless of where a participant was from, all assessments were the same. The UAS7 score is a composite score containing both the HSS7 and the ISS7. This allowed a global assessment of the two key components of urticaria: hives and itch. […] The UAS is a validated PRO measure. […] The daily UAS scores range from 0 to 6 point/day. […] Patients were to complete the UAS using the e-diary. […] The following secondary endpoints were to be analyzed using the same approach as for the primary endpoint: • Change from baseline in UAS7 at Week 4 • Change from baseline in UAS7 at Week 12 (for US and US reference countries) • Change from baseline in ISS7 at Week 12 (except US and US reference countries) • Change from baseline in HSS7 at Week 12 The following responder secondary endpoints were to be analyzed using the Cochran-Mantel-Haenszel test adjusted by region: • Proportion of participants with UAS7<6 at Week 12 • Proportion of participants with UAS7=0 at Week 12 Participants who received selected prohibited medications and/or rescue medications were to be considered as non-responders for time points after the medication usage. For other participants, all available data including those collected during the off-treatment period were to be used to determine the responder/non-responder status. Missing data were to be considered as non-responders.

[1] = Week 8, 400 mg BID, omalizumab-naive participants
[2] = Week 8, 400 mg QPM, ITT population
[3] = Week 8, 400 mg QPM, Omalizumab-Naïve
[4] = Week 8, 400 mg QPM, Prior Omalizumab Use
[5] = Week 8, 400 mg QPM, omalizumab-naive participants
[6] = Week 8, 400 mg TID, ITT population
[7] = Week 8, 400 mg TID, Omalizumab-Naïve
[8] = Week 8, 400 mg TID, Prior Omalizumab Use
[9] = Week 8, 400 mg TID, omalizumab-naive participants
[10] = Week 9, 400 mg BID, ITT population
[11] = Week 9, 400 mg BID, Omalizumab-Naïve
[12] = Week 9, 400 mg BID, Prior Omalizumab Use
[13] = Week 9, 400 mg BID, omalizumab-naive participants
[14] = Week 9, 400 mg QPM, ITT population
[15] = Week 9, 400 mg QPM, Omalizumab-Naïve

Question: `CC(C)(C=C(C#N)C(=O)N1CCC[C@@H](n2nc(-c3ccc(Oc4ccccc4)cc3F)c3c(N)ncnc32)C1)N1CCN(C2COC2)CC1` [rilzabrutinib, (R)-2-[3-[4-amino-3-(2-fluoro-4-phenoxy-phenyl)pyrazolo[3,4-d]pyrimidin-1-yl]piperidine-1-carbonyl]-4-methyl-4-[4-(oxetan-3-yl)piperazin-1-yl]pent-2-enenitrile] was tested. Which “RRD (%) for rilzabrutinib vs. placebo, UAS7 reduction of 10 points or more” value (“RRD (%) … UAS7 reduction of 10 points or more” below) [1] did it give?
Answer: Its value is 24.0 %.

Question: What about the “Responder, UAS7 reduction from baseline of 10 points or more” value [1] of the same compound?
Answer: Its value is 21 (60.0) n (%).

Question: And the “Non-responder, UAS7 reduction from baseline of 10 points or more” value (“Non-responder, UAS7 reduction” for short) [2]?
Answer: The value was 21 (55.3) n (%).

Question: What about the “OR for rilzabrutinib vs. placebo, UAS7 reduction of 10 points or more” value [2] of the same compound?
Answer: Its value is 1.257.

Question: What about the “RRD (%) … UAS7 reduction of 10 points or more” value [2] of the same compound?
Answer: The value was 5.3 %.

Question: What about the “Responder, UAS7 reduction from baseline of 10 points or more” value [2] of the same compound?
Answer: The value was 17 (44.7) n (%).

Question: And the “UAS7 Change from baseline Mean (SD)” value [3]?
Answer: Its value is −10.63 (9.70).

Question: And the “UAS7 Change from baseline Median” value [3]?
Answer: Its value is −10.80.

Question: And the “UAS7 Median” value [3]?
Answer: Its value is 21.00.

Question: And the “UAS7 Percent change from baseline Mean (SD)” value (“UAS7 Percent change … (SD)” below) [3]?
Answer: The value was −33.68 (30.26) %.

Question: And the “UAS7 Percent change from baseline Median” value [3]?
Answer: The value was −31.82%.

Question: And the “UAS7 Change from baseline Mean (SD)” value [4]?
Answer: The value was −25.00 (NC).

Question: And the “UAS7 Change from baseline Median” value [4]?
Answer: The value was −25.00.

Question: What about the “UAS7 Mean (SD)” value [4] of the same compound?
Answer: The value was 16.00 (NC).

Question: What about the “UAS7 Median” value [4] of the same compound?
Answer: The value was 16.00.

Question: And the “UAS7 Percent change … (SD)” value [4]?
Answer: The value was −60.98 (NC) %.

Question: What about the “UAS7 Percent change from baseline Median” value [4] of the same compound?
Answer: The value was −60.98%.

Question: And the “Non-responder, UAS7 reduction” value [5]?
Answer: Its value is 21 (56.8) n (%).

Question: What about the “OR for rilzabrutinib vs. placebo, UAS7 reduction of 10 points or more” value [5] of the same compound?
Answer: The value was 1.331.

Question: What about the “RRD (%) … UAS7 reduction of 10 points or more” value [5] of the same compound?
Answer: Its value is 6.6 %.

Question: And the “Responder, UAS7 reduction from baseline of 10 points or more” value [5]?
Answer: The value was 16 (43.2) n (%).

Question: And the “Non-responder, UAS7 reduction” value [6]?
Answer: Its value is 14 (34.1) n (%).

Question: What about the “RRD (%) … UAS7 reduction of 10 points or more” value [6] of the same compound?
Answer: Its value is 23.2 %.

Question: What about the “Responder, UAS7 reduction from baseline of 10 points or more” value [6] of the same compound?
Answer: The value was 27 (65.9) n (%).

Question: And the “UAS7 Change from baseline Mean (SD)” value [7]?
Answer: The value was −16.89 (10.13).

Question: What about the “UAS7 Change from baseline Median” value [7] of the same compound?
Answer: Its value is −15.17.

Question: What about the “UAS7 Mean (SD)” value [7] of the same compound?
Answer: The value was 13.36 (9.81).

Question: And the “UAS7 Median” value [7]?
Answer: Its value is 14.00.

Question: And the “UAS7 Percent change … (SD)” value [7]?
Answer: The value was −55.66 (31.25) %.

Question: And the “UAS7 Percent change from baseline Median” value [7]?
Answer: The value was −55.83%.

Question: And the “UAS7 Change from baseline Median” value [8]?
Answer: Its value is −25.58.

Question: What about the “UAS7 Mean (SD)” value [8] of the same compound?
Answer: Its value is 7.50 (11.26).

Question: What about the “UAS7 Median” value [8] of the same compound?
Answer: Its value is 3.00.

Question: And the “UAS7 Percent change … (SD)” value [8]?
Answer: Its value is −78.96 (25.66) %.

Question: What about the “UAS7 Percent change from baseline Median” value [8] of the same compound?
Answer: The value was −84.90%.

Question: And the “Non-responder, UAS7 reduction” value [9]?
Answer: The value was 13 (37.1) n (%).

Question: What about the “OR for rilzabrutinib vs. placebo, UAS7 reduction of 10 points or more” value [9] of the same compound?
Answer: The value was 2.815.

Question: What about the “RRD (%) … UAS7 reduction of 10 points or more” value [9] of the same compound?
Answer: Its value is 25.7 %.

Question: What about the “Responder, UAS7 reduction from baseline of 10 points or more” value [9] of the same compound?
Answer: Its value is 22 (62.9) n (%).

Question: What about the “Non-responder, UAS7 reduction” value [10] of the same compound?
Answer: The value was 20 (48.8) n (%).

Question: And the “OR for rilzabrutinib vs. placebo, UAS7 reduction of 10 points or more” value [10]?
Answer: Its value is 1.471.

Question: What about the “RRD (%) … UAS7 reduction of 10 points or more” value [10] of the same compound?
Answer: The value was 10.6 %.

Question: What about the “Responder, UAS7 reduction from baseline of 10 points or more” value [10] of the same compound?
Answer: Its value is 21 (51.2) n (%).

Question: What about the “UAS7 Change from baseline Median” value [11] of the same compound?
Answer: Its value is −17.00.

Question: And the “UAS7 Mean (SD)” value [11]?
Answer: Its value is 14.64 (14.43).

Question: What about the “UAS7 Percent change … (SD)” value [11] of the same compound?
Answer: Its value is −53.27 (40.38) %.

Question: And the “UAS7 Percent change from baseline Median” value [11]?
Answer: The value was −59.77%.

Question: And the “UAS7 Change from baseline Mean (SD)” value [12]?
Answer: Its value is −20.83 (19.15).

Question: What about the “UAS7 Change from baseline Median” value [12] of the same compound?
Answer: The value was −27.00.

Question: And the “UAS7 Mean (SD)” value [12]?
Answer: The value was 11.17 (15.78).

Question: What about the “UAS7 Median” value [12] of the same compound?
Answer: The value was 1.00.

Question: What about the “UAS7 Percent change … (SD)” value [12] of the same compound?
Answer: The value was −60.63 (52.86) %.

Question: And the “UAS7 Percent change from baseline Median” value [12]?
Answer: Its value is −97.62%.

Question: And the “Non-responder, UAS7 reduction” value [13]?
Answer: Its value is 17 (48.6) n (%).

Question: And the “OR for rilzabrutinib vs. placebo, UAS7 reduction of 10 points or more” value [13]?
Answer: The value was 1.764.

Question: And the “RRD (%) … UAS7 reduction of 10 points or more” value [13]?
Answer: The value was 16.0 %.

Question: And the “Responder, UAS7 reduction from baseline of 10 points or more” value [13]?
Answer: Its value is 18 (51.4) n (%).

Question: What about the “Non-responder, UAS7 reduction” value [14] of the same compound?
Answer: The value was 20 (52.6) n (%).

Question: And the “OR for rilzabrutinib vs. placebo, UAS7 reduction of 10 points or more” value [14]?
Answer: The value was 1.452.

Question: What about the “RRD (%) … UAS7 reduction of 10 points or more” value [14] of the same compound?
Answer: Its value is 8.5 %.

Question: And the “Responder, UAS7 reduction from baseline of 10 points or more” value [14]?
Answer: Its value is 18 (47.4) n (%).

Question: What about the “UAS7 Change from baseline Median” value [15] of the same compound?
Answer: Its value is −11.00.

Question: What about the “UAS7 Mean (SD)” value [15] of the same compound?
Answer: Its value is 20.25 (10.25).

Question: What about the “UAS7 Median” value [15] of the same compound?
Answer: The value was 19.33.

Question: And the “UAS7 Percent change … (SD)” value [15]?
Answer: The value was −36.26 (27.83) %.

Question: And the “UAS7 Percent change from baseline Median” value [15]?
Answer: The value was −32.58%.
